# How the values were obtained:
# [1] = system: Breast-fed infants with a diagnosis of infantile colic; assay: Selected probiotic strains versus Simethicone in the treatment of infantile colic (crying time, 28 days); format: in vivo, human; settings: for Crying time (mean minutes per day): N = 30 per group
# Text: Breast-fed infants with a diagnosis of infantile colic are recruited in the Department of Pediatric and Adolescence Science (Drottning Silvias University Hospital, Goteborg). Patients aged 21-90 days, adequate for gestational age with a birth weight between 2500 and 4000 g, with colic symptoms satisfying the Wessel's criteria, and arisen almost 6±1 days before the enrollment, are considered for inclusion in the study (Wessel M A, Cobb J C, Jackson E B, Harris G S, Detwiler A C. Paroxismal fussing in infancy, sometimes called “colic”. Pediatrics 1954; 14: 421-35). All infants enrolled are exclusively breast-fed in order to reduce variability in the intestinal microflora due to variations in the diet, which may in turn have influenced the response to the probiotic. Infants are excluded if they had clinical evidence of chronic illness or gastrointestinal disorders or if they had received either antibiotics or probiotics in the week preceding recruitment.
# In this study, colicky infants are randomized to receive the probiotic or Simethicone in the following treatments:
# L. reuteri is administered at a dose of 10^8 colony forming units (CFU) in 5 drops of a commercially available MCT-oil (medium chain tri-glyceride oil) suspension 30 min after feeding, once a day for 28 days. MCT oils occur naturally, and the most abundant source is coconut oil. Most MCT oil is refined from coconut oil. MCT oil is a clear light colored liquid with no flavor and low viscosity. This oil suspension is stable for 21 months at 2-8° C. (as documented by the manufacturer, BioGaia AB, Stockholm, Sweden) (alternative source of MCT oil is Akomed R, by Karlshamns AB, Karlshamn, Sweden). During the study, parents are instructed to keep the product in the refrigerator when not in use. Simethicone (S) was given at a dose of 60 mg/day in 3 mL of a commercially available solution (Mylicon Infants Gas Relief Drops, J&J, 7050 Camp Hill Rd., Fort Washington, Pa., 19034-2210, USA) after feeding, twice a day for 28 days. At the enrollment, all mothers are asked to follow a cows' milk-free diet as reported: avoidance of milk, yogurt, fresh and strong cheese, cream, butter, biscuits. Adherence to the diet is monitored with a diet diary maintained for all the treatment period. At day 7, 14, 21 and 28 one of the researches examined the compliance to this diet.
# The day on which the pediatrician saw the infant for the first time is defined as Day-1. On this occasion each infant underwent a medical examination and the parents were interviewed in order to obtain background data concerning type of delivery, birth weight and gestational age, family history of gastrointestinal disease and atopy. In particular, the last one is considered positive if the infants had one or more family members (mother, father and/or older sibling) with atopic eczema, allergic rhinitis or asthma. Moreover, any signs and symptoms of atopic disease during the study period were recorded. Parents were also invited to record data concerning daily average crying time and number of colic episodes on the day after the recruitment (Day 0). The doctor randomly assigned the child to any of the study groups. Administration of study products began on Day 1.
# Parents are given written information about the study and are asked to record daily number of inconsolable crying episodes and their duration, stool consistency and frequency as well as any observed side effects (constipation, vomiting, cutaneous reactions, etc) starting from Day 0 up to Day 28, using a structured diary. In order to ensure that all the parents noted crying time in a uniform way and to ensure that the infants are given the medication correctly, one of the researchers is always available by phone to help parents.
# Each patient is re-examined by the same pediatrician on Days 1, 7, 14, 21 and 28.
# [2] = system: colicky symptoms in breast-fed infants; settings: within 7 days of treatment; cited from earlier work
substance,measurement,setting,value
dimethylpolysiloxane [Simethicone],withdrawal because of any side effect related to the trial,"[1]; 28 days treatment, 30 infants per group",No babies are withdrawn because of any side effect
same,Crying time (mean minutes per day),"[1]; Day 0 (before administration), colicky infants",205 minutes per day
same,Crying time (mean minutes per day),"[1]; Day 1, colicky infants",194 minutes per day
same,Crying time (mean minutes per day),"[1]; Day 7, colicky infants",172 minutes per day
same,Crying time (mean minutes per day),"[1]; Day 14, colicky infants",155 minutes per day
same,Crying time (mean minutes per day),"[1]; Day 21, colicky infants",148 minutes per day
same,Crying time (mean minutes per day),"[1]; Day 28, colicky infants",141 minutes per day
same,response rate to the treatment,[2],7%

# Source: patent publication US9340840B2, “Use of selected lactic acid bacteria for reducing infantile colic” (Biogaia AB, priority 2006, dated 2016)
